This note sets out measurements from patent US20030166528A1, “Antifungal compound” (priority 2000, published 2003).

Data set [1] is described as follows: in vivo. The settings on record: DBA/2, mouse, iv, well tolerated dose.
Data set [2] has as its system C. albicans. It counts as cell-based. The conditions noted are these: on C. albicans, with fluconazole and amphotericin-B. The procedure: (§1) In addition, checkerboard assays were used to evaluate synergy, additivity or antagonism between XMP.676 and fluconazole, amphotericin B or itraconazole. These assays were carried out on both C. albicans and A. fumigatus. Results from these experiments were used to calculate fractional inhibitory concentration (FIC) values. […] At lower concentrations of both compounds, additional synergy may be observed.

The test system of data set [3] is A. fumigatus. It counts as cell-based. The settings on record: on A. fumigatus, with tested concentrations of amphotericin-B and itraconazole. The procedure: as §1
Data set [4] deals with C. albicans SLU-1. Format: in vivo, DBA/2 mice. On the procedure:
XMP.676 was tested for in vivo antifungal activity in mice with systemic C. albicans infection, as measured by effect on mortality, generally according to Example 4 of U.S. Pat. No. 5,858,974.
Briefly described, DBA/2 mice were inoculated with an IV injection of approximately 7×10^4 CFU C. albicans SLU-1. Desired doses of XMP.676 were prepared from a stock solution of 1 mg/mL XMP.676 in a 0.9% saline solution. Treatment with XMP.676, other antifungal agents or saline via either IV or IP routes was initiated immediately after fungal challenge. Subsequent treatments were administered q.o.d. through day 15. Mortality was recorded daily for 28 days.

Data set [5] has as its system C. albicans. Format: in vivo, mice. The conditions noted are these: 5 mg/kg twice daily for 14 days, intraperitoneal; preliminary test.
The conditions of data set [6]: in vivo.
Data set [7] deals with Aspergillus fumigatus. It counts as in vivo, mice. On the procedure:
XMP.676 was additionally tested in cyclosporin-A (CSA) immunosuppressed mice systemically infected with about 5×10^5 CFU Aspergillus fumigatus. Specifically, mice were immunosuppressed by IP injection of 50 mg/kg CSA at day-1. CSA injections continued daily for 9 consecutive days (to day 8). On Day 0, animals received the second CSA injection immediately followed by an inoculum of A. fumigatus in a 0.25 mL volume via a lateral tail injection. Treatment with XMP.676 began one hour following fungal challenge at doses of 0.3, 1.0, 3.0 or 10.0 mg/kg IP, was repeated one day later, and then continued q.o.d. for a total of 7 treatments (Days 0, 1, 3, 5, 7, 9, 11). One group was treated with saline as a control, and another group received 1.0 mg/kg amphotericin B for comparison. Mortality was recorded for 28 days. […] XMP.676 is also be tested in the absence of immunosuppression with CSA.

Data set [8] has as its system C. albicans SLU-1. Format: cell-based. The conditions noted are these: radial diffusion assay. On the procedure:
XMP.676 was tested for in vitro antifungal activity in radial diffusion assays against C. albicans SLU-1 generally according to Examples 2 and 3 of U.S. Pat. No. 5,858,974.

The format of data set [9] is in vivo, rabbits. On the procedure: Increasing doses of various […], or via intraperitoneal injection, to determine the maximum dose of peptide that could be administered without causing observable symptoms such as respiratory distress and loss of righting reflex. […] […] When administered via rapid intravenous injection, doses of XMP.676 higher than 2.5 mg/kg were not well tolerated, but slow injection increased the well tolerated dose two-fold to 5.0 mg/kg. When administered intraperitoneally, XMP.676 was well tolerated at doses up to and including 15.0 mg/kg. […] XMP.676 was also tested in cytarabine-treated conscious rabbits (wherein 30 mg/kg cytarabine was administered intravenously daily for 5 days prior to administration of XMP.676).

The format of data set [10] is in vitro ADME. The conditions noted are these: for half-life: 37° C., 250 μg/mL, read-out: biological half life. On the procedure: XMP.676 was also tested for stability using a bioassay generally according to Example 5 of U.S. Pat. No. 5,858,974, wherein the peptide is incubated with SDB, RPMI, mouse serum or human serum for varying amounts of time and the resulting serum-treated product is tested for retention of antifungal activity against C. albicans SLU-1 in a FACScan assay as follows.
A solution of XMP.676 (0.5 mg/mL) was mixed with medium or fresh mouse serum or fresh human serum at a 1:1 ratio to make a 250 μg/mL solution. The resulting mixture was incubated at 37° C. Small sample volumes were removed from the incubation mixture at specific times and placed at −20° C.
Antifungal activity of the peptide/serum (or peptide/media) samples was tested as follows. Mid-log phase C. albicans were suspended in SDB at a concentration of about 1×10^6 CFU/ml. The suspension was aliquoted in 1 mL portions into polystyrene tubes. The peptide/serum mixture sample were thawed and 50 μL of each sample was aliquoted into each tube and incubated at 37° C. for various times. The cells were then pelleted and resuspended in a solution of 10 μg/mL propidium iodide/PBS and incubated for 5 minutes. Propidium iodide is a fluorescent exclusionary dye that is only taken up by the cell when cell death has occurred. Cells were analyzed for fluorescence on a FACScan instrument using cells treated with 70% ethanol as the control for 100% death, and untreated cells for zero death.

Read-outs that look alike come from different tables or passages of the source. Non-standard residues stand in square brackets, D forms with d. Residues, ends and D or L forms follow the SMILES beside them. 1Nal = N[C@@H](Cc1cccc2ccccc12)C(=O)O; 2Thi = N[C@@H](Cc1cccs1)C(=O)O; Nva = CCC[C@H](N)C(=O)O

As a reminder, the MTD is the highest dose tested that stayed within the study's limit of toxicity. The low end stands for a narrow tolerated range, the high end for a wide tolerated range. For orientation: half-life means the time needed for the level to fall by half in the phase considered. Compound `CCC[C@H](NC(=O)[C@H](CCC(N)=O)NC(=O)[C@@H](NC(=O)[C@H](CCC)NC(=O)[C@H](Cc1cccc2ccccc12)NC(=O)[C@H](N)CCCCN)[C@@H](C)CC)C(=O)N[C@H](C(=O)N[C@@H](Cc1cccs1)C(=O)N[C@H](CCCCN)C(=O)N[C@H](CCCCN)C(N)=O)C(C)C` [XMP.676, LysD-(Naph-1-Ala)-Norvaline-Ile-Gln-Norvaline-Val-(Thienyl-Ala)-LysD-LysD] (H-[dK][1Nal][Nva]IQ[Nva]V[2Thi][dK][dK]-NH2) showed an MTD in data set [1] of 2.5 mg/kg. The “synergy, additivity or antagonism (FIC)” value in [2] is “strong additivity or synergy”; in data set [3], “additivity”. Moreover, the reduction in mortality entry was “statistically significant reduction in mortality” in data set [4] (0.5 mg/kg IV q.o.d., p<0.001, 28 days); “reduction in mortality” in data set [4] (1.0 mg/kg IV q.o.d., p=0.019, 28 days); “statistically significant reduction in mortality” in [4] (2.5 mg/kg IV q.o.d., all five experiments (p=0.005, p<0.001, p<0.001, p=0.002, p=0.015)); “statistically significant reduction in mortality” in data set [4] (5 mg/kg IP q.o.d. or q.d., three of four experiments (p=0.0001, p=0.012, p=0.018)); “highly statistically significant reduction in mortality” in [7] (1.0 mg/kg IP q.o.d., p=0.0003, 28 days); “no reduction in mortality” in data set [7] (3.0 mg/kg IP). For the same compound, the reduction in mortality entry in [7] (10.0 mg/kg IP) is “no reduction in mortality”. Moreover, the “protection, slow injection relative to rapid bolus injection” value in data set [4] (IV, slow (approximately 20 seconds) vs rapid (less than about 5 seconds), 2.5 mg/kg in FIG. 2) is “greater delay in onset of death and greater protection”. In data set [4] (intravenous), the “benefit of intravenous treatment q.o.d. versus q.d. or b.i.d.” value is listed as “greater benefit”. In addition, in data set [5], the “reduction in mortality compared to saline control” value is “did not provide a reduction in mortality”. This compound came in with a well tolerated dose in data set [6] (DBA/2, mouse, iv) of 5.0 mg/kg. Further, the well tolerated doses in [6] (mouse, ip) is no more than 15.0 mg/kg. Besides, the “lowest minimum inhibitory concentration (MIC) observed” value in [8] was found to be 171 pmol. Moreover, the adverse events entry was “did not result in any significant adverse events” in data set [9] (2.5 mg/kg IV, 30 minute single infusion) and “resulted in mortality” in data set [9] (doses higher than 2.5 mg/kg IV infusion). In addition, the “stability in microbial media” value in data set [10] (all types of microbial media examined (SDB, RPMI)) is on record as “excellent stability”. The half-life in data set [10] (human serum) and in data set [10] (mouse serum) was greater than 3 h throughout.
